Assay results from PubChem BioAssay (NCI).
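Grown in 96-well plates, cells were treated for 48 hours with each compound at five concentrations. Insufficient inhibition: endpoint recorded as highest concentration tested. Definition used: TGI = concentration required for complete inhibition of growth.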

How the values were obtained:
Assay in all cases: growth of human tumour cells (NCI), 48 h
[1] = tested on: CCRF-CEM leukemia
[2] = tested on: NCI-H460 lung
[3] = tested on: SF-539 CNS
[4] = tested on: SN12C renal
[5] = tested on: COLO 205 colon
[6] = tested on: NCI-H23 lung
[7] = tested on: MOLT-4 leukemia
[8] = tested on: A549 NSCLC
[9] = tested on: OVCAR-3 ovarian
[10] = tested on: TK-10 renal
[11] = tested on: UO-31 renal
[12] = tested on: K-562 leukemia
[13] = tested on: SNB-19 CNS
[14] = tested on: M14 melanoma
[15] = tested on: SNB-75 CNS
[16] = tested on: LXFL 529 NSCLC
[17] = tested on: SR leukemia
[18] = tested on: 786-0 renal
[19] = tested on: RPMI-8226 leukemia
[20] = tested on: CAKI-1 renal
[21] = tested on: MALME-3M melanoma
[22] = tested on: UACC-257 melanoma
[23] = tested on: DMS 273 small cell lung
[24] = tested on: HCC-2998 colon
[25] = tested on: KM20L2 colon
[26] = tested on: SK-MEL-5 melanoma
[27] = tested on: OVCAR-4 ovarian
[28] = tested on: U251 CNS
[29] = tested on: KM12 colon
[30] = tested on: LOX IMVI melanoma
[31] = tested on: ACHN renal
[32] = tested on: RXF 393 renal
[33] = tested on: OVCAR-8 ovarian
[34] = tested on: HCT-116 colon
[35] = tested on: IGROV1 ovarian
[36] = tested on: UACC-62 melanoma
[37] = tested on: SF-295 CNS
[38] = tested on: EKVX NSCLC
[39] = tested on: M19-MEL melanoma
[40] = tested on: HOP-62 NSCLC
[41] = tested on: DMS 114 small cell lung
[42] = tested on: SW-620 colon
[43] = tested on: HCT-15 colon
[44] = tested on: NCI-H522 lung
[45] = tested on: DLD-1 colon
[46] = tested on: SK-MEL-2 melanoma
[47] = tested on: HT29 colon
[48] = tested on: HOP-18 NSCLC
[49] = tested on: NCI-H226 lung
[50] = tested on: SNB-78 CNS
[51] = tested on: SK-MEL-28 melanoma
[52] = tested on: OVCAR-5 ovarian
[53] = tested on: SF-268 CNS
[54] = tested on: HL-60(TB) leukemia
[55] = tested on: SK-OV-3 ovarian
[56] = tested on: HOP-92 NSCLC
[57] = tested on: A498 renal

`CNS(=O)(=O)NNS(=O)(=O)c1cccc([N+](=O)[O-])c1` showed a TGI [1] of over 100 µM, a TGI [2] of over 100 µM and a TGI [3] of over 100 µM. For the same compound, the TGI [4] was over 100 µM, the TGI [5] was over 100 µM and the TGI [6] was over 100 µM. For the same compound, the TGI [7] was over 100 µM, the TGI [8] was over 100 µM and the TGI [9] was over 100 µM. It also gave a TGI [10] of over 100 µM, a TGI [11] of over 100 µM and a TGI [12] of over 100 µM. For the same compound, the TGI [13] was over 100 µM, the TGI [14] was over 100 µM and the TGI [15] was over 100 µM. The TGI [16] was over 100 µM, the TGI [17] was over 100 µM and the TGI [18] was over 100 µM. It also gave a TGI [19] of over 100 µM, a TGI [20] of over 100 µM and a TGI [21] of over 100 µM. For the same compound, the TGI [22] was over 100 µM, the TGI [23] was over 100 µM and the TGI [24] was over 100 µM. The TGI [25] was over 100 µM, the TGI [26] was over 100 µM and the TGI [27] was over 100 µM. It also gave a TGI [28] of over 100 µM, a TGI [29] of over 100 µM and a TGI [30] of over 100 µM. The TGI [31] was over 100 µM, the TGI [32] was over 100 µM and the TGI [33] was over 100 µM. The TGI [34] was over 100 µM, the TGI [35] was over 100 µM and the TGI [36] was over 100 µM. The TGI [37] was over 100 µM, the TGI [38] was over 100 µM and the TGI [39] was over 100 µM. For the same compound, the TGI [40] was over 100 µM, the TGI [41] was over 100 µM and the TGI [42] was over 100 µM. It also gave a TGI [43] of over 100 µM, a TGI [44] of over 100 µM and a TGI [45] of over 100 µM. It also gave a TGI [46] of over 100 µM and a TGI [47] of over 100 µM.

`CC1=C(C(=O)CC(=O)C(=O)Nc2cccc(C)c2C)Sc2ccccc2N1` gave a TGI [1] of over 100 µM, a TGI [2] of over 100 µM and a TGI [3] of over 100 µM. For the same compound, the TGI [4] was over 100 µM, the TGI [48] was over 100 µM and the TGI [49] was over 100 µM. For the same compound, the TGI [6] was over 100 µM, the TGI [7] was over 100 µM and the TGI [8] was over 100 µM. For the same compound, the TGI [9] was over 100 µM, the TGI [10] was over 100 µM and the TGI [50] was over 100 µM. For the same compound, the TGI [11] was over 100 µM, the TGI [12] was over 100 µM and the TGI [13] was over 100 µM. It also gave a TGI [14] of over 100 µM, a TGI [51] of over 100 µM and a TGI [16] of over 100 µM. It also gave a TGI [18] of over 100 µM, a TGI [19] of over 100 µM and a TGI [20] of over 100 µM. It also gave a TGI [21] of over 100 µM, a TGI [22] of over 100 µM and a TGI [52] of over 100 µM. The TGI [24] was over 100 µM, the TGI [26] was over 100 µM and the TGI [27] was over 100 µM. The TGI [53] was over 100 µM, the TGI [28] was over 100 µM and the TGI [29] was over 100 µM. The TGI [30] was over 100 µM, the TGI [54] was over 100 µM and the TGI [31] was over 100 µM. The TGI [32] was over 100 µM, the TGI [33] was over 100 µM and the TGI [34] was over 100 µM. For the same compound, the TGI [35] was over 100 µM, the TGI [36] was over 100 µM and the TGI [37] was over 100 µM. For the same compound, the TGI [38] was over 100 µM, the TGI [39] was over 100 µM and the TGI [40] was over 100 µM. The TGI [55] was over 100 µM, the TGI [41] was over 100 µM and the TGI [42] was over 100 µM. It also gave a TGI [43] of over 100 µM, a TGI [56] of over 100 µM and a TGI [44] of over 100 µM. The TGI [45] was over 100 µM, the TGI [46] was over 100 µM and the TGI [47] was over 100 µM.

`C=CCCCCCCCC(O)C1C[C@H](O)C(CCCCC)O1` (stereo partly specified) was tested, and the TGI [1] was 41.6 µM, the TGI [2] was 37.2 µM and the TGI [3] was 30.7 µM. The TGI [4] was 36 µM, the TGI [48] was 32.1 µM and the TGI [49] was 29.6 µM. The TGI [5] was 34.5 µM, the TGI [6] was 36.8 µM and the TGI [7] was 43.6 µM. For the same compound, the TGI [8] was 37.5 µM, the TGI [9] was 32.7 µM and the TGI [10] was 34.8 µM. The TGI [50] was 45.1 µM, the TGI [11] was 31.9 µM and the TGI [12] was 47.6 µM. The TGI [14] was 34.6 µM, the TGI [51] was 33.7 µM and the TGI [15] was 29.7 µM. The TGI [16] was 29 µM, the TGI [18] was 32.2 µM and the TGI [19] was 43.9 µM. The TGI [20] was 34.6 µM, the TGI [21] was 33.5 µM and the TGI [23] was 32.8 µM. The TGI [24] was 33.4 µM, the TGI [26] was 34.7 µM and the TGI [28] was 31.3 µM. It also gave a TGI [29] of 41.3 µM, a TGI [30] of 36.1 µM and a TGI [54] of 37.4 µM. It also gave a TGI [31] of 36.6 µM, a TGI [32] of 37.7 µM and a TGI [33] of 40.2 µM. The TGI [34] was 34.5 µM, the TGI [35] was 42.2 µM and the TGI [36] was 29.6 µM. The TGI [37] was 33 µM, the TGI [38] was 36.7 µM and the TGI [39] was 35.9 µM. It also gave a TGI [55] of 43.2 µM, a TGI [41] of 37 µM and a TGI [42] of 41.7 µM. The TGI [57] was 36.1 µM, the TGI [43] was 40 µM and the TGI [56] was 30.7 µM. For the same compound, the TGI [44] was 35.1 µM, the TGI [45] was 31 µM and the TGI [47] was 35.6 µM.
